Results published in US7115611B2, “Phenyl derivatives, their manufacture and use as pharmaceutical agents” (Hoffmann-la Roche Inc., priority 2003, dated 2006).

Row | SMILES | melting point
1 | Cc1cc(SC(C)c2ccc(-c3ccc(C(F)(F)F)cc3)nc2C)ccc1OCC(=O)O (racemic) [Example 17, [rac]-(2-Methyl-4-{1-[2-methyl-6-(4-trifluoromethyl-phenyl)-pyridin-3-yl]-ethylsulfanyl}-phenoxy)-acetic acid] | 115 to 117 °C
2 | CC(C)(Oc1ccc(OCc2cnc(-c3ccc(C(F)(F)F)cc3)nc2C2CC2)c(F)c1)C(=O)O [Example 141, 2-{4-[4-Cyclopropyl-2-(4-trifluoromethyl-phenyl)-pyrimidin-5-ylmethoxy]-3-fluoro-phenoxy}-2-methyl-propionic acid] | 177.5 to 178 °C
3 | COCCCc1cc(N(C)Cc2ccc(-c3ccc(C(F)(F)F)cc3)nc2C)ccc1OCC(=O)O [Example 1, (2-(3-Methoxy-propyl)-4-{methyl-[2-methyl-6-(4-trifluoromethyl-phenyl)-pyridin-3-ylmethyl]-amino}-phenoxy)-acetic acid] | 72 to 73 °C
4 | Cc1cc(OCc2cnc(-c3ccc(C(F)(F)F)cc3)cc2C(F)(F)F)ccc1OC(C)(C)C(=O)O [Example 108, 2-Methyl-2-{2-methyl-4-[4-trifluoromethyl-6-(4-trifluoromethyl-phenyl)-pyridin-3-ylmethoxy]-phenoxy}-propionic acid] | 148 to 149 °C
5 | Cc1cc(OCc2ccc(-c3ccc(OC(F)(F)F)cc3)nc2)ccc1OC(C)(C)C(=O)O [Example 10, 2-Methyl-2-{2-methyl-4-[6-(4-trifluoromethoxy-phenyl)-pyridin-3-ylmethoxy]-phenoxy}-propionic acid] | 146 to 148 °C
6 | Cc1cc(SCc2cnc(-c3ccc(C(F)(F)F)cc3)nc2C2CC2)ccc1OC(C)(C)C(=O)O [Example 144, 2-{4-[4-Cyclopropyl-2-(4-trifluoromethyl-phenyl)-pyrimidin-5-ylmethylsulfanyl]-2-methyl-phenoxy}-2-methyl-propionic acid] | 129 to 131 °C
7 | Cc1cc(N(C)Cc2ccc(-c3ccc(Cl)cc3)nc2)ccc1OCC(=O)O [Example 12, (4-{[6-(4-Chloro-phenyl)-pyridin-3-ylmethyl]-methyl-amino}-2-methyl-phenoxy)-acetic acid] | 174 to 176 °C
8 | CCOCCc1nc(-c2ccc(C(F)(F)F)nc2)ncc1COc1ccc(OC(C)(C)C(=O)O)c(C)c1 [Example 101, 2-{4-[4-(2-Ethoxy-ethyl)-2-(6-trifluoromethyl-pyridin-3-yl)-pyrimidin-5-ylmethoxy]-2-methyl-phenoxy}-2-methyl-propionic acid] | 122 to 124 °C (dec.)
9 | COCc1nc(-c2ccc(C(F)(F)F)cc2)ncc1COc1ccc(OC(C)(C)C(=O)O)c(C)c1 [Example 104, 2-{4-[4-Methoxymethyl-2-(4-trifluoromethyl-phenyl)-pyrimidin-5-ylmethoxy]-2-methyl-phenoxy}-2-methyl-propionic acid] | 120 to 121 °C
10 | Cc1cc(OCc2ccc(-c3ccc(C(F)(F)F)cc3)nc2C)ccc1SCC(=O)O [Example 146, {2-Methyl-4-[2-methyl-6-(4-trifluoromethyl-phenyl)-pyridin-3-ylmethoxy]-phenylsulfanyl}-acetic acid] | 168 to 169 °C
11 | Cc1cc(SCc2cnc(-c3ccc(OC(F)(F)F)cc3)nc2C2CC2)ccc1OC(C)(C)C(=O)O [Example 142, 2-{4-[4-Cyclopropyl-2-(4-trifluoromethoxy-phenyl)-pyrimidin-5-ylmethylsulfanyl]-2-methyl-phenoxy}-2-methyl-propionic acid] | 127 to 128 °C (dec.)
12 | Cc1c(OCc2cnc(-c3ccc(C(F)(F)F)cc3)nc2C2CC2)ccc(OC(C)(C)C(=O)O)c1C [Example 106, 2-{4-[4-Cyclopropyl-2-(4-trifluoromethyl-phenyl)-pyrimidin-5-ylmethoxy]-2,3-dimethyl-phenoxy}-2-methyl-propionic acid] | 214 to 215 °C (dec.)
13 | COCc1nc(-c2ccc(C(F)(F)F)cc2)ccc1COc1ccc(OC(C)(C)C(=O)O)c(C)c1 [Example 45, 2-{4-[2-Methoxymethyl-6-(4-trifluoromethyl-phenyl)-pyridin-3-ylmethoxy]-2-methyl-phenoxy}-2-methyl-propionic acid] | 121 to 122 °C
14 | Cc1cc(OCc2ccc(-c3ccc(C(F)(F)F)cc3)nc2C)ccc1OC(C)(C)C(=O)O [Example 34, 2-Methyl-2-{2-methyl-4-[2-methyl-6-(4-trifluoromethyl-phenyl)-pyridin-3-ylmethoxy]-phenoxy}-propionic acid] | 164 to 165 °C
15 | Cc1cc(OCc2cnc(-c3ccc(C(F)(F)F)nc3)nc2C2CC2)ccc1OC(C)(C)C(=O)O [Example 105, 2-{4-[4-Cyclopropyl-2-(6-trifluoromethyl-pyridin-3-yl)-pyrimidin-5-ylmethoxy]-2-methyl-phenoxy}-2-methyl-propionic acid] | 185 to 185.5 °C
16 | Cc1cc(OCc2ccc(-c3ccc(C(F)(F)F)c(F)c3)nc2C)ccc1OC(C)(C)C(=O)O [Example 38, 2-{4-[6-(3-Fluoro-4-trifluoromethyl-phenyl)-2-methyl-pyridin-3-ylmethoxy]-2-methyl-phenoxy}-2-methyl-propionic acid] | 175 to 176 °C

Row | SMILES | melting point
17 | Cc1cc(OCc2cnc(-c3ccc(C(F)(F)F)cc3)nc2C(F)(F)F)ccc1OC(C)(C)C(=O)O [Example 107, 2-Methyl-2-{2-methyl-4-[4-trifluoromethyl-2-(4-trifluoromethyl-phenyl)-pyrimidin-5-ylmethoxy]-phenoxy}-propionic acid] | 149 to 151 °C (dec.)
18 | Cc1cc(OCc2cnc(-c3ccc(C(F)(F)F)nc3)nc2CCO)ccc1OC(C)(C)C(=O)O [Example 103, 2-{4-[4-(2-Hydroxy-ethyl)-2-(6-trifluoromethyl-pyridin-3-yl)-pyrimidin-5-ylmethoxy]-2-methyl-phenoxy}-2-methyl-propionic acid] | 187 to 188 °C (dec.)
19 | Cc1cc(N(C)Cc2ccc(-c3ccc(OC(F)(F)F)cc3)nc2)ccc1OCC(=O)O [Example 13, (2-Methyl-4-{methyl-[6-(4-trifluoromethoxy-phenyl)-pyridin-3-ylmethyl]-amino}-phenoxy)-acetic acid] | 137 to 138 °C
20 | Cc1cc(N(C)Cc2ccc(-c3ccc(C(F)(F)F)cc3)nc2)ccc1OCC(=O)O [Example 15, (2-Methyl-4-{methyl-[6-(4-trifluoromethyl-phenyl)-pyridin-3-ylmethyl]-amino}-phenoxy)-acetic acid] | 199 °C
21 | Cc1cc(OCc2ccc(-c3ccc(OC(F)(F)F)cc3)nc2C)ccc1OC(C)(C)C(=O)O [Example 39, 2-Methyl-2-{2-methyl-4-[2-methyl-6-(4-trifluoromethoxy-phenyl)-pyridin-3-ylmethoxy]-phenoxy}-propionic acid] | 149 to 151 °C
22 | COCCc1nc(-c2ccc(C(F)(F)F)nc2)ncc1COc1ccc(OC(C)(C)C(=O)O)c(C)c1 [Example 102, 2-{4-[4-(2-Methoxy-ethyl)-2-(6-trifluoromethyl-pyridin-3-yl)-pyrimidin-5-ylmethoxy]-2-methyl-phenoxy}-2-methyl-propionic acid] | 140.5 to 141.5 °C (dec.)
23 | Cc1cc(OCc2ccc(-c3ccc(OC(F)(F)F)cc3)nc2C2CC2)ccc1OC(C)(C)C(=O)O [Example 145, 2-{4-[2-Cyclopropyl-6-(4-trifluoromethoxy-phenyl)-pyridin-3-ylmethoxy]-2-methyl-phenoxy}-2-methyl-propionic acid] | 131 to 133 °C
24 | CCC(Sc1ccc(OCC(=O)O)c(C)c1)c1ccc(-c2ccc(C(F)(F)F)cc2)nc1C (racemic) [Example 18, [rac]-(2-Methyl-4-{1-[2-methyl-6-(4-trifluoromethyl-phenyl)-pyridin-3-yl]-propylsulfanyl}-phenoxy)-acetic acid] | 126 to 128 °C
25 | Cc1cc(OCc2ccc(-c3ccc(C(F)(F)F)cc3)nn2)ccc1OC(C)(C)C(=O)O [Example 44, 2-Methyl-2-{2-methyl-4-[6-(4-trifluoromethyl-phenyl)-pyridazin-3-ylmethoxy]-phenoxy]-propionic acid] | 191 to 192 °C
26 | Cc1cc(N(C)Cc2ccc(-c3ccc(C(F)(F)F)cc3)nc2C)cc(C)c1OCC(=O)O [Example 7, (2,6-Dimethyl-4-{methyl-[2-methyl-6-(4-trifluoromethyl-phenyl)-pyridin-3-ylmethyl]-amino}-phenoxy)-acetic acid] | 137 to 138 °C
27 | Cc1cc(OCc2ccc(-c3ccc(C(F)(F)F)cc3)nc2C2CC2)ccc1OC(C)(C)C(=O)O [Example 40, 2-{4-[2-Cyclopropyl-6-(4-trifluoromethyl-phenyl)-pyridin-3-ylmethoxy]-2-methyl-phenoxy}-2-methyl-propionic acid] | 170 to 171 °C
28 | Cc1cc(OCc2cnc(-c3ccc(OC(F)(F)F)cc3)nc2C(F)(F)F)ccc1OC(C)(C)C(=O)O [Example 111, 2-Methyl-2-{2-methyl-4-[2-(4-trifluoromethoxy-phenyl)-4-trifluoromethyl-pyrimidin-5-ylmethoxy]-phenoxy}-propionic acid] | 153.5 to 154.5 °C
29 | COCCCc1cc(N(C)Cc2ccc(-c3ccc(C(F)(F)F)cc3)nc2)ccc1OCC(=O)O [Example 16, (2-(3-Methoxy-propyl)-4-{methyl-[6-(4-trifluoromethyl-phenyl)-pyridin-3-ylmethyl]-amino}-phenoxy)-acetic acid] | 72 to 76 °C
30 | Cc1cc(OCc2ccc(-c3ccc(C(F)(F)F)cc3)nc2)ccc1OC(C)(C)C(=O)O [Example 9, 2-Methyl-2-{2-methyl-4-[6-(4-trifluoromethyl-phenyl)-pyridin-3-ylmethoxy]-phenoxy}-propionic acid] | 149 to 151 °C
31 | Cc1cc(OCc2cnc(-c3ccc(C(F)(F)F)cc3)nc2CCO)ccc1OC(C)(C)C(=O)O [Example 110, 2-{4-[4-(2-Hydroxy-ethyl)-2-(4-trifluoromethyl-phenyl)-pyrimidin-5-ylmethoxy]-2-methyl-phenoxy}-2-methyl-propionic acid] | 155 to 155.5 °C
32 | COCCc1nc(-c2ccc(C(F)(F)F)cc2)ncc1COc1ccc(OC(C)(C)C(=O)O)c(C)c1 [Example 140, 2-{4-[4-(2-Methoxy-ethyl)-2-(4-trifluoromethyl-phenyl)-pyrimidin-5-ylmethoxy]-2-methyl-phenoxy}-2-methyl-propionic acid] | 119.5 to 120 °C
